According to ChEMBL document CHEMBL5608235, “Tricyclic Benzo[1,3]oxazinyloxazolidinones as Potent Antibacterial Agents against Drug-Resistant Pathogens” (J Med Chem, 2024):
Active and inactive are the calls of the source.

Columns and labels:
[1] = tested on: Staphylococcus epidermidis; test: Antibacterial activity against methicillin resistant Staphylococcus epidermidis clinical isolate 20-2 assessed as inhibition of bacterial growth incubated for 7 days by alamar blue assay; format: functional; settings: clinical isolate 20-2, 168 h, time 7 day
[2] = tested on: Staphylococcus aureus; test: (§1) Antibacterial activity against methicillin resistant Staphylococcus aureus ATCC 33592 infected in cyclophosphamide-induced immunosuppressed Kunming mouse assessed as reduction in pigment deposition in spleen at 50 mg/kg,po administration measured after 24 hrs by hematoxylin and eosin staining based microscopy; format: functional, organism-based
[3] = tested on: Staphylococcus aureus; test: Inhibition of protein synthesis in Staphylococcus aureus ATCC 29213 by translation assay; format: functional, organism-based
[4] = tested on: Cell membrane; test: Disruption of cell membrane in methicillin resistant Staphylococcus aureus ATCC 33592 assessed as cell surface perforation at 1 ug/ml incubated for 6 hrs by Scanning electron microscopic analysis; format: cell membranes; settings: dose 1.0 µg/ml
[5] = tested on: Staphylococcus aureus; test: Antibacterial activity against Linezolid resistant Staphylococcus aureus assessed as inhibition of bacterial growth incubated for 7 days by alamar blue assay; format: functional; settings: 168 h, time 7 day
[6] = tested on: Enterococcus faecalis; test: Antibacterial activity against Enterococcus faecalis ATCC29212 assessed as inhibition of bacterial growth incubated for 18 hrs by microdilution broth assay; format: functional
[7] = tested on: Staphylococcus aureus; test: as §1, with “congestion” for “pigment deposition”; format: functional, organism-based
[8] = tested on: Staphylococcus aureus; test: as §1, with “inflammatory cell infiltration” for “pigment deposition”, “liver” for “spleen”; format: functional, organism-based
[9] = Cytotoxicity against African green monkey Vero cells incubated for 48 hrs by MTT assay; format: toxicity, cell-based, Chlorocebus sabaeus
[10] = tested on: Staphylococcus aureus; test: Antibacterial activity against Linezolid resistant Staphylococcus aureus clinical isolate 20-1 assessed as inhibition of bacterial growth incubated for 7 days by alamar blue assay; format: functional; settings: clinical isolate 20-1, 168 h, time 7 day
[11] = tested on: Mycobacterium tuberculosis; test: Antibacterial activity against Mycobacterium tuberculosis H37Rv assessed as inhibition of bacterial growth incubated for 7 days by alamar blue assay; format: functional; settings: 168 h, time 7 day
[12] = tested on: Staphylococcus aureus; test: Antibacterial activity against methicillin resistant Staphylococcus aureus clinical isolate 20-2 assessed as inhibition of bacterial growth incubated for 7 days by alamar blue assay; format: functional; settings: clinical isolate 20-2, 168 h, time 7 day
[13] = Free AUC in BALB/c mouse at 10 mg/kg,po administration measured upto 24 hrs by LC-MS/MS analysis; format: ADME, organism-based; settings: in vivo
[14] = tested on: Staphylococcus aureus; test: Antibacterial activity against methicillin resistant Staphylococcus aureus ATCC 33592 infected in cyclophosphamide-induced immunosuppressed Kunming mouse assessed as increase in body weight at 50 mg/kg,po administration measured for 7 days; format: functional, organism-based; settings: time 7.0 day
[15] = tested on: Staphylococcus aureus; test: as §1, with “inflammatory cell infiltration” for “pigment deposition”, “kidney” for “spleen”; format: functional, organism-based
[16] = tested on: Staphylococcus aureus; test: as §1, with “histopathological change” for “pigment deposition”, “heart” for “spleen”; format: functional, organism-based
[17] = tested on: Staphylococcus epidermidis; test: Antibacterial activity against Staphylococcus epidermidis ATCC12228 assessed as inhibition of bacterial growth incubated for 18 hrs by microdilution broth assay; format: functional
[18] = tested on: Staphylococcus aureus; test: Inhibition of biofilm formation in Staphylococcus aureus ATCC 29213 at 10 ug/ml incubated for 48 hrs by crystal violet staining based assay; format: functional, organism-based; settings: dose 10.0 µg/ml
[19] = tested on: Staphylococcus aureus; test: as §1, with “histopathological change” for “pigment deposition”; format: functional, organism-based
[20] = tested on: Staphylococcus aureus; test: Antibacterial activity against methicillin resistant Staphylococcus aureus clinical isolate 20-1 assessed as inhibition of bacterial growth incubated for 7 days by alamar blue assay; format: functional; settings: clinical isolate 20-1, 168 h, time 7 day
[21] = tested on: Cell membrane; test: Disruption of cell membrane in methicillin resistant Staphylococcus aureus ATCC 33592 assessed as cell shrinkage at 1 ug/ml incubated for 6 hrs by Scanning electron microscopic analysis; format: cell membranes; settings: dose 1.0 µg/ml
[22] = tested on: Staphylococcus aureus; test: Antibacterial activity against Linezolid resistant Staphylococcus aureus clinical isolate 20-2 assessed as inhibition of bacterial growth incubated for 7 days by alamar blue assay; format: functional; settings: clinical isolate 20-2, 168 h, time 7 day
[23] = tested on: Staphylococcus aureus; test: Antibacterial activity against vancomycin intermediate Staphylococcus aureus ATCC700699 assessed as inhibition of bacterial growth incubated for 7 days by alamar blue assay; format: functional; settings: ATCC700699, 168 h, time 7 day
[24] = tested on: Staphylococcus epidermidis; test: Antibacterial activity against methicillin resistant Staphylococcus epidermidis clinical isolate 20-1 assessed as inhibition of bacterial growth incubated for 7 days by alamar blue assay; format: functional; settings: clinical isolate 20-1, 168 h, time 7 day
[25] = tested on: Staphylococcus aureus; test: Inhibition of biofilm formation in methicillin resistant Staphylococcus aureus ATCC 33592 at 0.1 to 10 ug/ml incubated for 48 hrs by crystal violet staining based assay; format: functional, organism-based; settings: dose 0.1-10 µg/ml
[26] = tested on: Bacillus subtilis; test: Antibacterial activity against Bacillus subtilis ATCC6633 assessed as inhibition of bacterial growth incubated for 18 hrs by microdilution broth assay; format: functional
[27] = tested on: Enterococcus; test: Antibacterial activity against vancomycin resistant Enterococcus clinical isolate 20-1 assessed as inhibition of bacterial growth incubated for 7 days by alamar blue assay; format: functional; settings: clinical isolate 20-1, 168 h, time 7 day

CC(=O)NC[C@H]1CN(c2ccc(N3CCOCC3)c(F)c2)C(=O)O1 [LINEZOLID]
5260 ng·h/mL: fAUC [13]
1 µg/mL: MIC [12] | MIC [20] | MIC [23]
active: Activity [2] | Activity [4] | Activity [7] | Activity [8] | Activity [14] | Activity [15] | Activity [16] | inhibition [18] | Activity [19] | Activity [21] | inhibition [25]
> 64 µg/mL: IC50 at 48 h [9] | MIC [26]
1.1 µg/mL: IC50 [3]
2 µg/mL: MIC [17] | MIC [27]
8 µg/mL: MIC [5] | MIC [10] | MIC [22]
0.5 µg/mL: MIC [1] | MIC [6] | MIC [24]
0.8 µg/mL: MIC [11]
